Consider one substance from patent publication US5547982A, “Anti-tumor platinum complexes” (priority 1995, dated 1996).

The subject of this data set is Daudi tumor cell line. The experiment in a line: Cytotoxicity testing against Daudi cells (killing of 50% of the Daudi cells). Format: cell-based. As to conditions: 5E9 conjugate versus free agents, conjugate MSR=8.9, read-out: CC50 (concentration of platinum compound which killed 50% of the Daudi cells).

With “ammino[4-succinimidyl -(5-aminopentan-2-one) terephthalic hydrazone] tetrachloro platinum (IV) [AAtC]”, the CC50 is 2.1 µM.
